Assay results published in US8445461B2, “Pharmaceutical composition for meniere's disease” (Setsuko Takeda, priority 2007, dated 2013).

What was measured:
[1] = system: guinea pigs excreting normal feces; assay: Antidiarrheal effect: observation of feces after oral administration of saccharides or sugar alcohols with or without polysaccharides (Example 1); type: in vivo
Description: The criteria for analyzing the conditions of feces (hardness, shape and spaces of feces in the intestine) are as shown in Table 2:
The hardness and microscopic findings of feces from the group administered with distilled water were assessed as “Normal” scoring 3, the feces having normal shape and the shape could rather easily change by pushing with fingers were assessed as “Slightly soft” scoring 2, those of which the shape had already changed or it could quite easily change by pushed with fingers were assessed as “Soft” scoring 1, and those of which the shape is muddy or watery or of no shape were assessed “Muddy” scoring 0. To be precese, there are no watery feces because of the nature of diets and thus the muddy feces correspond to watery and muddy feces in human.
Since the muddy feces comprise large content of water, they induce the high abdominal pressure and the flatulence and distension. […] In the case of gas generation, it appears that noxious symptom such as the flatulence and distension are synergistically deteriorated. Therefore, we assessed not only based on the hardness of feces, but also the size, smoothness of the surface and amount of feces.
In these experiments, I observed is the diarrhea caused by saccharides or sugar alcohols and antidiarrhreal effect of saccharides. Guinea pigs orally received saccharides or sugar alcohols, for example tetrose such as erythritol, pentose such as xylitol or xylose, hexose such as isosorbitol or the like in combination with or without polysaccharides for observation of the feces up to 6 hours after the administration.
Guinea pigs (body weight 280 to 320 g, normal feces) were divided into four groups: for Group 1-a, xylitol alone (Reference Example 1), or xylitol and xanthan gum or pectin; for Group 1-b, xylose alone (Reference Example 2), xylose and xanthan gum or pectin; for Group 1-c, erythritol alone (Reference Example 3), erythritol and pectin, erythritol and xanthan gum, or erythritol, pectin and natural aluminum silicate gel or calcium carbonate; and for Group 1-d, isosorbitol alone (Reference Example 4), or isosorbitol and xanthan gum or pectin were orally administered, respectively. The compounds are dissolved in distilled water and 8 ml/kg of said solution were administered as a single dose.
The feces were observed during 6 hours after the administration. When the animals fell into the most serious condition, the hardness and shape of the feces from said animals were assessed as the effect by saccharides or sugar alcohols in the animals.

[2] = system: guinea pigs excreting normal feces; assay: as above; type: in vivo; conditions: maltitol 2.8 g/kg oral, alone or with additive; average of 4 animals; score 0 muddy to 4 hard
[3] = system: endolymphatic hydrops; conditions: systemic administration; cited from earlier work
[4] = active agent 2.8 g/kg oral, alone or with additive of the label
[5] = maltitol 2.8 g/kg oral, alone or with additive of the label (Table 6)
[6] = maltitol 2.8 g/kg oral, alone or with additive, average of 4 animals, score 0 muddy to 4 hard

| SMILES | Abdominal distension / gas by inspections and palpations [1, 4] | Time after administration when diarrhea / softening of feces started [1, 4] [h] | Time after administration when feces recovered to (almost) normal [1, 4] [h] | Hardness of feces: Hard (number of animals) [1, 5] | Hardness of feces: Muddy (number of animals) [1, 5] | Hardness of feces: Normal (number of animals) [1, 5] | Hardness of feces: Slightly soft (number of animals) [1, 5] | Hardness of feces: Soft (number of animals) [1, 5] | Hardness of feces (average score), 1 hr after the administration [1, 6] | Hardness of feces (average score), 2 hr after the administration [1, 6] | Hardness of feces (average score), 3 hr after the administration [1, 6] | Hardness of feces (average score), 4 hr after the administration [1, 6] | Hardness of feces (average score), 5 hr after the administration [1, 6] | Hardness of feces (average score), 6 hr after the administration [1, 6] | Hardness of feces (average score), 12 hr after the administration [2] | Hardness of feces (average score), 18 hr after the administration [2] | Hardness of feces (average score), 24 hr after the administration [2] | Decompression effect on endolymphatic hydrops [3] | Effect in the normal ear [3] |
| --- | --- | --- | --- | --- | --- | --- | --- | --- | --- | --- | --- | --- | --- | --- | --- | --- | --- | --- | --- |
| OC[C@@H](O)[C@@H](O[C@H]1O[C@H](CO)[C@@H](O)[C@H](O)[C@H]1O)[C@H](O)[C@@H](O)CO [Maltitol, maltitol] | abdominal distension was observed | 3 | ≥ 24 | 0 | 6 | 0 | 0 | 0 | 3 | 2.3 | 1.7 | 0.2 | 0 | 0 | 0 | 1.2 | 2.5 |  |  |
| Cc1ccccc1C(=O)Nc1ccc(C(=O)N2CCCC(N(C)C)c3ccccc32)cc1 (stereo not shown) [OPC 31260] |  |  |  |  |  |  |  |  |  |  |  |  |  |  |  |  |  | did not reveal the decompression effect | formation of endolymphatic hydrops in the normal ear |
